Patent publication US11573233B2, “Systems and methods for label-free detection of analytes” (UNIVERSITY OF UTAH RESEARCH FOUNDATION, priority 2015, dated 2023)

Test: second harmonic imaging (SHI) of tetracaine binding to lipid bilayer array
Excerpt: SH is a powerful tool for investigating small-molecule and protein interactions with membranes in a label-free manner. However, a high-throughput analog would be even more advantageous, akin to fluorescence imaging. Towards that end, SHI was implemented to measure the interactions between the local anesthetic tetracaine and a […] lipid bilayer array (MLBA) in a label-free manner allowing the effects of lipid phase and CHO content on tetracaine binding to be examined simultaneously.

## CCCCNc1ccc(C(=O)OCCN(C)C)cc1 [tetracaine]
Effect of phospholipid unsaturation and cholesterol content
  maximum surface excess: increases with the degree of unsaturation of the phospholipids and decreases with cholesterol in the lipid bilayers
l.c. phase vs solid-gel phase lipids, label-free SHI
  binding affinity to lipid phases: higher binding affinity to l.c. phase lipids than to solid-gel phase lipids
